Values quoted from earlier work as cited in article PMC7765247 (Bioorganic & medicinal chemistry letters, 2020).

System: PC-3 cells
Details: anoxia (< 10 ppm oxygen in gas phase); ref Patterson el. al.

SMILES: CS(=O)(=O)OCCN(CCBr)c1c(C(=O)NCCO)cc([N+](=O)[O-])cc1[N+](=O)[O-] [Compound 16, PR-104A]
- hypoxia-selectivity ratio in PC-3 cells: approximately 15
